Results published in patent US20190106460A1, “BINDING INHIBITORS OF THE BETA. TRANSDUCIN REPEAT-CONTAINING PROTEIN” (priority 2011, published 2019).
Entries after “also recorded” stand apart in the source; their conditions may differ. Non-standard residues stand in square brackets, D forms with d. Residues, ends and D or L forms follow the SMILES beside them. *: point of attachment. Benzenesulfonyl(4-OMe) = COc1ccc(S(=O)(=O)*)cc1; Arachidoyl = CCCCCCCCCCCCCCCCCCCC(=O)*; Phe(3-F) = N[C@@H](Cc1cccc(F)c1)C(=O)O; Stearoyl = CCCCCCCCCCCCCCCCCC(=O)*; 2Naphthoyl = O=C(c1ccc2ccccc2c1)*; Brosyl = O=S(=O)(c1ccc(Br)cc1)*; Tos = Cc1ccc(S(=O)(=O)*)cc1; Ahx = NCCCCCC(=O)O

Columns and labels:
Format in all cases: cell-based
PDCD4 in MCF7 cells [1] = experiment: In-cell western assay for PDCD4 accumulation; details: for cell based activity: general statement, different delivery vehicles; for accumulation of PDCD4, in cell western: MCF7, treatment with cell permeable compound
Method: In-Cell Western Assay for PDCD4 Accumulation.
To measure this an in-cell western assay was used and the peptidomimetics were delivered to the cells by nucleofection.
MCF7 cells were grown in 10 cm dishes in 10 ml DMEM+10% FBS and 1% Pen/Strep at 37° C./5% CO2. On the day of nucleofection, the dish was washed with 90% confluent MCF7 cells with 5 ml PBS, then 3 ml of Trypsin/EDTA was added and incubated at 37° C./5% CO2 for approximately 5 mins until the cells detached from the plastic. 7 ml of normal growth media was added and the number of cells present was counted using a haemocytometer.
The cells were centrifuged cells at 90 g for 10 mins at RT and the supernatant was removed. 100 μl of Nucleofection Buffer V+ Supplement was added (Lonza Biologics Cat no VCA-1003) per 8×10^5 cells, and the cells were added to peptidomimetics dissolved in <3% DMSO.
The cell/peptidomimetic mix was added to cuvettes supplied for the nucleofector and the sample was nucleofected using the recommended MCF7 programme for high cell viability (i.e. E-014). 500 μl of TPA (12-O-tetradecanoylphorbol-13-acetate)-supplemented growth media (i.e. DMEM/10% FBS/1% Pen-Strep/10 nM TPA) was added to the cuvette and 100 μl of this solution was transferred to a well of a 96 well plate and incubated at 37° C./5% CO2 for 8 hours.
The celled were fixed by removing the growth media, adding 3.7% Formaldehyde in PBS and incubating at RT for 20 mins. The plate was washed three times in PBS. And the cells were permeabilised by washing 5× for 5 mins each in PBS+0.1% Triton X-100.
The cells were blocked by adding 3% BSA in PBS-Tween to the cells and incubating at RT for 1.5 hours. An anti-PDCD4 antibody (Abcam cat no: ab80590) was added at a concentration of 1:1000 in 3% BSA in PBS-T (50 ul/well) and incubated at RT for 2.5 hours. The cells were washed 5× for 5 mins each with PBS-T before the secondary antibody (LiCor Biosciences Donkey Anti-Rabbit IRDye 800CW cat no 926-32213) was added at a concentration of 1:1000, along with the DNA stain DRAQ5 at a concentration of 1:10000, in 3% BSA in PBS-T (50 ul/well) and incubated at RT for 1 hour, protected from light.
The cells were washed cells 5× for 5 mins each with PBS-T and all the liquid was removed from the wells before the plate was read on the LiCor Biosciences Odyssey at 700 nm and 800 nm. The reading was normalised in the 800 nm channel to that in the 700 nm channel. The data are shown in FIG. 12, where DMSO was used as a negative control and 20 μM MG132 was used as a positive control. The data is presented as percentage activity with DMSO=0% and […]=100% activity. Error bars represent standard deviation from 3 replicates.
The compounds shown in FIGS. 14A-14B were synthesised to improve cell permeability. […] FIG. 16 compares the round II compounds (shown in FIGS. 14A-14B) with UBP036 in this assay. […] Inhibition of βTrCP, which is responsible for the degradation of both PDCD4 and β-catenin, causes a concomitant stabilisation and accumulation of levels of these proteins which can be measured by in cell western assay.

LNCaP (prostate cancer) = experiment: xCELLigence cell viability / proliferation, LNCaP
Method: Example 9—Cell Based Activity of Cell Permeable Compounds on the xCELLigence Platform
The effects of the compounds shown in FIGS. 14A-14B were tested on cancer cell lines MCF7 (breast cancer) and LNCaP (prostate cancer) using the xCELLigence platform (http://www.roche-applied-science.com/sis/xcelligence/ezhome.html). This method of measuring cell viability via measuring cell index is known in the art.
Different doses of the compounds were tested on MCF7 cells to see if there would be an effect on their cell viability.
The control compound was compared to its partner active compound (UBP037).
(§1) xCELLigence Method • Before starting the experiment add 50 μL of medium (RPMI 1640, 10% fetal bovine serum, 100 units/mL penicillin, 100 ug/mL streptomycin, and 2 mmol/L glutamine, all from GIBCO) to each well of 96 well E-plate (Roche) and place the plate in the xCELLigence platform to measure the background. • LNCaP/PNT-1 cells are seeded (LNCaPs 80000 cells/well; PNT1 3000 cells/well) in the plate in complete medium and equilibrated for 60 mins at RT before returning to the xCELLigence platform and incubating at 37° C./5% CO2. • 24 hrs after seeding, remove 100 μL of medium was removed from each well and cells were treated with compounds or DMSO diluted in 100 μL of OptiMEM (GIBCO). • Replace the plate in the xCELLigence platform • Cells growth can then be monitored in real-time by the cell index profile on the xCELLigence readout screen • Cell growth can be expressed as normalized cell index and doubling time/slope calculated using the RTCA software.

PDCD4 in LNCaP cells = experiment: Traditional western blot for PDCD4, LNCaP
Text: […]

PNT-1 cell line = experiment: xCELLigence cell growth, non-malignant PNT-1
Method: as §1
The susceptibility of cancer cell lines versus non-cancer cell lines following treatment with the compounds was also investigated.

PDCD4 in MCF7 cells [2] = experiment: Traditional western blot for PDCD4, MCF7
Text: […]

SMILES	cell based activity (PDCD4 in MCF7 cells [1])	cell growth / proliferation, xCELLigence (LNCaP (prostate cancer))	PDCD4 accumulation, traditional western blot (PDCD4 in LNCaP cells)	cell growth, xCELLigence (PNT-1 cell line)	PDCD4 accumulation, traditional western blot (PDCD4 in MCF7 cells [2])	accumulation of PDCD4, in cell western (PDCD4 in MCF7 cells [1])
COc1ccc(S(=O)(=O)N[C@H](CC(=O)O)C(=O)N[C@@H](CCC(=O)O)C(=O)NCC(=O)N[C@@H](Cc2cccc(F)c2)C(=O)N[C@@H](Cc2c[nH]c3ccccc23)C(=O)N[C@@H](CCC(=O)O)C(N)=O)cc1 [UBP022, 4-(MeO)-PhSO2-dEGF(3F)WE-NH2] ({Benzenesulfonyl(4-OMe)}-[dD]EG[Phe(3-F)]WE-NH2)	display cell based activity					
NC(=O)[C@H](CCCCNC(=O)c1ccc2ccccc2c1)NC(=O)CCCCCNC(=O)[C@H](CCC(=O)O)NC(=O)[C@H](Cc1c[nH]c2ccccc12)NC(=O)[C@H](Cc1cccc(F)c1)NC(=O)CNC(=O)[C@H](CCC(=O)O)NC(=O)[C@@H](CC(=O)O)NS(=O)(=O)c1ccc(Br)cc1 [UBP090, 4-(Br)PhSO2-dEGF(3F)WE-Ahx-K(NHCO(2-Naphth))-NH2] (Brosyl-[dD]EG[Phe(3-F)]WE[Ahx]K(2Naphthoyl)-NH2)	display cell based activity					
CCCCCCCCCCCCCCCCCC(=O)NCCCC[C@H](NC(=O)CCCCCNC(=O)[C@H](Cc1c[nH]c2ccccc12)NC(=O)CNC(=O)[C@H](CCC(=O)O)NC(=O)[C@H](Cc1ccccc1)NC(=O)[C@@H](CC(=O)O)NC(=O)[C@H](CCC(=O)O)NS(=O)(=O)c1ccc(C)cc1)C(N)=O [Ts-EdFEGW-Ahx-K(Stearic)-NH2, reference compound] (Tos-E[dD]FEGW[Ahx]K(Stearoyl)-NH2)		levels of cell proliferation similar to that seen with DMSO				
CCCCCCCCCCCCCCCCCC(=O)NCCCC[C@H](NC(=O)CCCCCNC(=O)[C@H](CCC(=O)O)NC(=O)[C@H](Cc1c[nH]c2ccccc12)NC(=O)[C@H](Cc1cccc(F)c1)NC(=O)CNC(=O)[C@H](CCC(=O)O)NC(=O)[C@@H](CC(=O)O)NS(=O)(=O)c1ccc(OC)cc1)C(N)=O [UBP037, 4-(MeO)PhSO2-dEGF(3F)WE-Ahx-K(NHCOC17H35)-NH2] ({Benzenesulfonyl(4-OMe)}-[dD]EG[Phe(3-F)]WE[Ahx]K(Stearoyl)-NH2)		inhibit the growth; also recorded: severely restricts the proliferation	exhibited cellular activity	far less effect	exhibited cellular activity	inconclusive results
CCCCCCCCCCCCCCCCCCCC(=O)NCCCC[C@H](NC(=O)CCCCCNC(=O)[C@H](CCC(=O)O)NC(=O)[C@H](Cc1c[nH]c2ccccc12)NC(=O)[C@H](Cc1cccc(F)c1)NC(=O)CNC(=O)[C@H](CCC(=O)O)NC(=O)[C@@H](CC(=O)O)NS(=O)(=O)c1ccc(OC)cc1)C(N)=O [UBP038, 4-(MeO)PhSO2-dEGF(3F)WE-Ahx-K(NHCOC19H39)-NH2] ({Benzenesulfonyl(4-OMe)}-[dD]EG[Phe(3-F)]WE[Ahx]K(Arachidoyl)-NH2)		inhibit the growth	exhibited cellular activity	far less effect	exhibited cellular activity	inconclusive results
